# Measurements: US20200188388A1, “METHODS AND COMPOSITIONS FOR PO[…] DRUGS AND REDUCING THEIR SIDE EFFECTS” (RVX THERAPEUTICS LTD., priority 2016, published 2020)
# How the values were obtained:
# [1] = test system: Wistar rats; test: Rotenone-induced PD: severe catalepsy on inclined grid; format: in vivo, rat; conditions: for Severe catalepsy (% of group): 45 min before rotenone 2.3 mg/kg, immobilization on inclined grid above 40 seconds; for Severe catalepsy, Day 19: control 58, doses as E38; for Severe catalepsy, Day 12: oral daily 19 days, 45 min before rotenone 2.3 mg/kg IP, levodopa given with benserazide 4:1, control 42, rat dose mg/kg by row (L levodopa, P phenylephrine, M memantine): r12 M2.5, r13 M5, r14 P0.3, r15 L10, r16 L20, r17 L5+P0.3+M1, r18 L10+P0.3+M1
# Excerpt: Rotenone is a specific inhibitor of mitochondrial complex 1, which causes oxidative stress and apoptotic death of dopaminergic and cholinergic neurons in the striatum, substantia nigra and cerebellum. Damage to these neurons causes a decrease in dopamine and acetylcholine levels in the striatum, extrapyramidal disorders (catalepsy, impaired coordination of movements) and oligokinesia typical for PD, as well as ataxia, limb dystonia and mortality characteristic of PSP. Rotenone is used to create a model of PD and PSP in Wistar rats by intraperitoneal introduction of rotenone in a toxic dose of 2.3 mg/kg (Jason R. Cannon et al., Neurobiology of Disease, 2009, Vol. 34, pages 279-290).
# Rotenone was dissolved in mixture of DMSO and Miglyol 812N at a ratio of 2:98 at concentration of 2.3 mg/ml. Preparation: 230 mg sample of rotenone in vials was dissolved in 2 ml of DMSO. The solution was poured into a jar with 100 ml. Vials are rinsed twice with 5 ml of Miglyol, washings attached to the main solution and stirred. To this solution was added 88 ml of Miglyol and mixed again. The resulting solution was divided into 3 doses. The solution was stored at −10° C. Each animal was administered 0.2 ml of a solution of rotenone: a dose of 0.46 mg per animal weighing 200±20 g, i.e. 2.3 mg/kg. The solution of rotenone was injected IP one time a day for 19 days.
# Anti-parkinsonian effect of therapy in rats with rotenone-induced PD was estimated according to elimination of extrapyramidal disorders (catalepsy) and oligokinesia (rapid decreased amplitude and velocity of repeated movements) in the “open field” test. The neuro-protective effect of therapy was evaluated by the elimination of ataxia limb dystonia and mortality in rats with rotenone-induced PSP. Hyperkinetic side action (hyper-locomotion) was evaluated by increased horizontal and vertical activity in the open field at the 10th and 18th day of the experiment, calculated in % compared to the first day of the experiment.
# The number of animals in the control and experimental groups ranged from 6 to 8.
# Levodopa was administered in combination with benserazide (peripheral dopa-decarboxylase inhibitor) at a ratio of 4:1 to reduce the side effects of levodopa, associated with the stimulation of peripheral dopamine receptors (Alam M. et al., Behav. Brain Res., 2004, Vol. 153 (2), pages 439-446). Levodopa with benserazide were dissolved in 1 ml of DW and administered orally in the volume of 1 ml. […] The mixture was administered orally in a volume of 1 ml. Anti-parkinsonian effect in the experimental groups of rats with rotenone has been evaluated by eliminating catalepsy and oligokinesia.
# Catalepsy in rats is determined by the time of immobilization of the animal, placed on a large grid predisposed at an angle of 45°. Maximum catalepsy in rats is recorded in the case of their complete immobilization on grid at 120 seconds for observation. The value of catalepsy is evaluated in points: 3 points—immobilization duration from 80 seconds to 120, 2 points—immobilization duration from 40 to 70, 1 point—immobilization duration from 20 to 35, 0 points—the immobilization of less than 20 seconds. Catalepsy was followed in rats daily, 30 minutes before administration of rotenone and 180 minutes after administration of rotenone. For each experimental group, on a daily basis, throughout the period of observation number of rats with severe catalepsy (2-3 points) was determined in % of the total number of rats in group. To assess the anti-cataleptic effects of therapy, on 12th and 19th day of experiment, reduction in the number of rats with severe catalepsy (2-3 points) in % was determined compared to control treated with distilled water.
# Anti-parkinsonian effect of therapy in rats with rotenone-induced parkinsonism was estimated according to elimination of extrapyramidal disorders (catalepsy) and oligokinesia in the “open field” test. […]
# [2] = test system: male Wistar rats; test: Opioid hyperalgesia in tail and paw withdrawal tests (% rats)
# [3] = test system: Wistar rats; test: Open field test, hypokinetic (sedative) or hyperkinetic action (analgesia examples)
# Procedure: (§1) To evaluate the hypokinetic (sedative) or hyperkinetic action effects of tested drugs an “open field” (OF) test was applied. In the OF test, the locomotive activity of rats is determined. Animals were placed in the center of square of the illuminated field (1 meter×1 meter) for 3 minutes and the mobility time was recorded in seconds (horizontal activity). […] To quantify the locomotive activity for each dose of test drug(s) an average horizontal activity was calculated.
# as §1
# To evaluate the hypokinetic (sedative) effects of drugs, “open field” (OF) test was applied. In the OF test, the locomotive activity of rats is determined. Animals were placed in the center of square of the illuminated field (1 meter×1 meter) for 3 minutes and the mobility time was recorded in seconds (horizontal activity). […] To quantify the locomotive activity for each dose of test drug(s), an average horizontal activity was calculated.
# Tail-Flick and Open Field Tests were Conducted as Detailed Above.
# as §1
smiles,measurement,setting,value
"N[C@@H](Cc1ccc(O)c(O)c1)C(=O)O [Levodopa, L-3,4-dihydroxyphenylalanine]",Severe catalepsy (% of group),"[1]; Day 12, levodopa 10 mg/kg oral",28 % of group
same,Severe catalepsy (% of group),"[1]; Day 12, levodopa 20 mg/kg oral",12 % of group
same,Severe catalepsy (% of group),"[1]; Day 19, levodopa 10 mg/kg oral",42 % of group
same,Severe catalepsy (% of group),"[1]; Day 19, levodopa 20 mg/kg oral",24 % of group
same,"Severe catalepsy, Day 19",[1]; levodopa 10 mg/kg,42 % of group
same,"Severe catalepsy, Day 19",[1]; levodopa 20 mg/kg,24 % of group
"CC12CC3CC(C)(C1)CC(N)(C3)C2 [Memantine, memantine]",Hyperalgesia,[2]; doses as E6,0 % rats
same,Hyperalgesia,[2]; doses as E12,0 % rats
same,Hyperalgesia,[2]; doses as E48,0 % rats
same,Hyperalgesia,[2]; doses as E54,0 % rats
same,Severe catalepsy (% of group),"[1]; Day 12, memantine 5 mg/kg oral",17 % of group
same,Severe catalepsy (% of group),"[1]; Day 12, memantine […] oral",33 % of group
same,Severe catalepsy (% of group),"[1]; Day 19, memantine 5 mg/kg oral",17 % of group
same,Severe catalepsy (% of group),"[1]; Day 19, memantine […] oral",50 % of group
same,"Severe catalepsy, Day 12",[1]; memantine 2.5 mg/kg,33 % of group
same,"Severe catalepsy, Day 12",[1]; memantine 5 mg/kg,17 % of group
same,Sedation,"[3]; I.M., doses by row as E3",0 % of Rats
same,Hyperkinesia or sedation,"[3]; unmarked cells, doses as E6",0 % rats
same,Hyperkinesia or sedataion,"[3]; unmarked cells, doses as E12",0 % rats
same,Hyperkinesia,"[3]; unmarked cells, doses as E48",0 % rats
same,Hyperkinesia,"[3]; unmarked cells, doses as E54",0 % rats
